Test results published in the NIST ThermoML archive (doi:10.1021/acs.jced.7b00769).

Assay: xn = mol fraction of the nth substance listed
Conditions: Gas, isochoric method

FC(F)(F)/C=C/Cl [(E)-1-chloro-3,3,3-trifluoroprop-1-ene] + CC(C)C
Conditions	specific volume [m3/kg]
303.15 K, 113.3 kPa, x2 = 0.125	0.174
303.15 K, 186.5 kPa, x2 = 0.564	0.1429
308.15 K, 115.4 kPa, x2 = 0.125	0.1741
308.15 K, 190.1 kPa, x2 = 0.564	0.1429
313.15 K, 117.5 kPa, x2 = 0.125	0.1741
313.15 K, 193.7 kPa, x2 = 0.564	0.143
313.15 K, 197.4 kPa, x2 = 0.453	0.1261
318.15 K, 119.6 kPa, x2 = 0.125	0.1742
318.15 K, 197.5 kPa, x2 = 0.564	0.143
318.15 K, 200.9 kPa, x2 = 0.453	0.1262
318.15 K, 340.9 kPa, x2 = 0.746	0.0926
323.15 K, 121.8 kPa, x2 = 0.125	0.1742
323.15 K, 200.9 kPa, x2 = 0.564	0.143
323.15 K, 204.5 kPa, x2 = 0.453	0.1262
323.15 K, 347.6 kPa, x2 = 0.746	0.0926
328.15 K, 123.8 kPa, x2 = 0.125	0.1742
328.15 K, 204.3 kPa, x2 = 0.564	0.143
328.15 K, 208 kPa, x2 = 0.453	0.1262
328.15 K, 353.9 kPa, x2 = 0.746	0.0926
333.15 K, 125.8 kPa, x2 = 0.125	0.1743
333.15 K, 207.8 kPa, x2 = 0.564	0.1431
333.15 K, 211.4 kPa, x2 = 0.453	0.1262
333.15 K, 360.6 kPa, x2 = 0.746	0.0926
333.15 K, 648.1 kPa, x2 = 0.865	0.0535
338.15 K, 128.2 kPa, x2 = 0.125	0.1743
338.15 K, 211.1 kPa, x2 = 0.564	0.1431
338.15 K, 214.9 kPa, x2 = 0.453	0.1263
338.15 K, 366.9 kPa, x2 = 0.746	0.0926
338.15 K, 576.1 kPa, x2 = 0.644	0.0499
338.15 K, 661.4 kPa, x2 = 0.865	0.0535
343.15 K, 130.2 kPa, x2 = 0.125	0.1744
343.15 K, 214.6 kPa, x2 = 0.564	0.1431
343.15 K, 218.5 kPa, x2 = 0.453	0.1263
343.15 K, 373.2 kPa, x2 = 0.746	0.0927
343.15 K, 587.5 kPa, x2 = 0.644	0.0499
343.15 K, 674.5 kPa, x2 = 0.865	0.0536
348.15 K, 132.2 kPa, x2 = 0.125	0.1744
348.15 K, 218 kPa, x2 = 0.564	0.1432
348.15 K, 222 kPa, x2 = 0.453	0.1263
348.15 K, 379.5 kPa, x2 = 0.746	0.0927
348.15 K, 598.7 kPa, x2 = 0.644	0.0499
348.15 K, 687.5 kPa, x2 = 0.865	0.0536
353.15 K, 134.4 kPa, x2 = 0.125	0.1744
353.15 K, 221.4 kPa, x2 = 0.564	0.1432
353.15 K, 225.5 kPa, x2 = 0.453	0.1264
353.15 K, 385.8 kPa, x2 = 0.746	0.0927
353.15 K, 609.8 kPa, x2 = 0.644	0.0499
353.15 K, 700.5 kPa, x2 = 0.865	0.0536
358.15 K, 136.3 kPa, x2 = 0.125	0.1745
358.15 K, 224.6 kPa, x2 = 0.564	0.1432
358.15 K, 229 kPa, x2 = 0.453	0.1264
358.15 K, 391.8 kPa, x2 = 0.746	0.0927
358.15 K, 620.8 kPa, x2 = 0.644	0.0499
358.15 K, 713.3 kPa, x2 = 0.865	0.0536
363.15 K, 138.3 kPa, x2 = 0.125	0.1745
363.15 K, 228.1 kPa, x2 = 0.564	0.1433
363.15 K, 232.1 kPa, x2 = 0.453	0.1264
363.15 K, 398.1 kPa, x2 = 0.746	0.0927
363.15 K, 631.1 kPa, x2 = 0.644	0.05
363.15 K, 726.1 kPa, x2 = 0.865	0.0536
368.15 K, 140.4 kPa, x2 = 0.125	0.1745
368.15 K, 231.5 kPa, x2 = 0.564	0.1433
368.15 K, 235.6 kPa, x2 = 0.453	0.1264
368.15 K, 404.2 kPa, x2 = 0.746	0.0928
368.15 K, 642.6 kPa, x2 = 0.644	0.05
368.15 K, 738.7 kPa, x2 = 0.865	0.0536
373.15 K, 142.3 kPa, x2 = 0.125	0.1746
373.15 K, 234.8 kPa, x2 = 0.564	0.1433
373.15 K, 239.1 kPa, x2 = 0.453	0.1265
373.15 K, 410.7 kPa, x2 = 0.746	0.0928
373.15 K, 653.2 kPa, x2 = 0.644	0.05
373.15 K, 751.4 kPa, x2 = 0.865	0.0536
378.15 K, 144.4 kPa, x2 = 0.125	0.1746
378.15 K, 238.2 kPa, x2 = 0.564	0.1434
378.15 K, 242.6 kPa, x2 = 0.453	0.1265
378.15 K, 416.9 kPa, x2 = 0.746	0.0928
378.15 K, 664.1 kPa, x2 = 0.644	0.05
378.15 K, 763.9 kPa, x2 = 0.865	0.0536
383.15 K, 146.5 kPa, x2 = 0.125	0.1747
383.15 K, 241.7 kPa, x2 = 0.564	0.1434
383.15 K, 246.4 kPa, x2 = 0.453	0.1265
383.15 K, 423.2 kPa, x2 = 0.746	0.0928
383.15 K, 675 kPa, x2 = 0.644	0.05
383.15 K, 776.5 kPa, x2 = 0.865	0.0536
